Results: patent US12691086B2, “Methods of treating systemic sclerosis and idiopathic pulmonary fibrosis” (HORIZON THERAPEUTICS IRELAND DAC, priority 2022, dated 2026)
Entries after “also recorded” stand apart in the source; their conditions may differ.

Tests used:
[1] = tested on: cardiac hypertrophy, fibrosis and heart failure; test: Models of hypertension or diabetes-related cardiac hypertrophy, fibrosis and heart failure; conditions: in vivo
From the text: (§1) All these pathological events can be observed in SSc patients at different levels and further support the use of Compound I in these patients.

thrombosis = test: Acute models of coagulation and arterial thrombosis (two models in rats); type: in vivo
From the text: as §1

[2] = target: T1, organic anion transporter 1 (OAT1) (Homo sapiens, UniProt Q4U2R8); test: In vitro inhibition of organic anion transporter 1; type: in vitro ADME
T1 sequence (Q4U2R8 1-563): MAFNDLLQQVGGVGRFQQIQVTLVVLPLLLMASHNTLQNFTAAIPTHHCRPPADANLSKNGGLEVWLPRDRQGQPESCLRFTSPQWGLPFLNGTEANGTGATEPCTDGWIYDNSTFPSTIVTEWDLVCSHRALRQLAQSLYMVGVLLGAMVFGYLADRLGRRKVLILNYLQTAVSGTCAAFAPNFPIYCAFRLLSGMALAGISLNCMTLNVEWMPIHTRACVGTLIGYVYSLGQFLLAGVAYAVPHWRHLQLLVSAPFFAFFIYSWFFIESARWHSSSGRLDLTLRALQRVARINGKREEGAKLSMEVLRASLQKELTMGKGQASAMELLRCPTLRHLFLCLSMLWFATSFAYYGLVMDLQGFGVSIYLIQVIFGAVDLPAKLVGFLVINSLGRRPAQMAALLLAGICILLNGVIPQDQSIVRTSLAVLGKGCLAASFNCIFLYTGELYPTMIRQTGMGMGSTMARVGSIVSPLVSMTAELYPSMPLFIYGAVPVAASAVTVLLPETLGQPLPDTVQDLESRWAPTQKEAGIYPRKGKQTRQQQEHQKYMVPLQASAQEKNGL

[3] = tested on: leukocytes and total inflammatory cells in broncho-alveolar lavage; test: Broncho-alveolar lavage of presensitized mice treated with ovalbumin; type: in vivo
renal failure = test: Models of hypertension-induced or nephrotoxicity-induced renal failure; conditions: in vivo
From the text: as §1

skin fibrosis = conditions: mouse, in vivo; cited from earlier work
[4] = target: lysophosphatidic acid receptor 1 (LPAR1) (Homo sapiens, UniProt Q92633); test: LPAR1 antagonism
tight skin (Tsk-1) mice = test: Tight skin (Tsk-1) mice model of skin fibrosis; type: in vivo, mouse; conditions: 30 mg/kg/day
From the text: Two models of skin fibrosis were used to evaluate the effect of Compound I in comparison with imatinib mesylate, used as a reference.

[5] = Single-dose PK under fasted conditions in healthy adult subjects; type: in vivo, human; conditions: for AUC(0-inf) / AUC(0-t) / Cmax / Tmax / half-life: human, plasma, oral
Procedure: The PK of Compound I and food effect were evaluated in an open-label study in healthy volunteers to inform the dose and dosing condition of the tablet formulations used in the clinical studies. Dose proportionality and food effect were evaluated using a 2-way, 2-period crossover design in two cohorts:150 mg and 300 mg single dose under fasting condition in Cohort 1 and 450 mg single dose under fasting and high-fat, high calorie meal condition in Cohort 2. Multiple-dose PK was evaluated using a 2-period, fixed sequence crossover design. Subjects received Compound I twice a day (BID) of 300 mg (Cohort 3) or 450 mg (Cohort 4) administered with low-fat meals in Period 1 and with high-fat meals in Period 2.
PK sample collections: For cohort 1 and 2, blood samples were collected at predose, 0.5, 1, 2, 3, 4, 6, 8, 12, 24, 36, 48, 72, 96 and 120 h post dose. For cohort 3 and 4, blood samples were collected at predose, 0.5, 1, 2, 4, 5, 12 hrs after the first dose on Day 1. After the last dose on Day 5, PK samples were taken at predose, 0.5, 1, 2, 4, 6, 12, 24, 36, 60, 84, 108 hr in Period 1 and predose, 0.5, 1, 2, 4, 6, 12 hours post last dose in Period 2.
Plasma concentrations of Compound I were determined using a validated high performance liquid chromatography-tandem mass spectrometry (HPLC MS/MS) method. The analytical range of Compound I were 250-50,000 ng/mL (high range) and […] (low range). Dose-proportionality of pharmacokinetic parameters were examined by analysis of variance (ANOVA) where the AUC0-last, AUC0-inf, and Cmax parameters were dose normalized. 90% confidence intervals (CIs) were derived by exponentiation of the CIs obtained for the difference between the treatment LSMs (Least square means). Dose proportionality was established if the 90% CI for the ratio of the geometric means for the dose-normalized parameters lay within the limits of (0.7, 1.43).

[6] = target: T2, organic anion transporter 3 (OAT3) (Homo sapiens, UniProt Q8TCC7); test: In vitro inhibition of organic anion transporter 3; type: in vitro ADME
T2 sequence (Q8TCC7 1-542): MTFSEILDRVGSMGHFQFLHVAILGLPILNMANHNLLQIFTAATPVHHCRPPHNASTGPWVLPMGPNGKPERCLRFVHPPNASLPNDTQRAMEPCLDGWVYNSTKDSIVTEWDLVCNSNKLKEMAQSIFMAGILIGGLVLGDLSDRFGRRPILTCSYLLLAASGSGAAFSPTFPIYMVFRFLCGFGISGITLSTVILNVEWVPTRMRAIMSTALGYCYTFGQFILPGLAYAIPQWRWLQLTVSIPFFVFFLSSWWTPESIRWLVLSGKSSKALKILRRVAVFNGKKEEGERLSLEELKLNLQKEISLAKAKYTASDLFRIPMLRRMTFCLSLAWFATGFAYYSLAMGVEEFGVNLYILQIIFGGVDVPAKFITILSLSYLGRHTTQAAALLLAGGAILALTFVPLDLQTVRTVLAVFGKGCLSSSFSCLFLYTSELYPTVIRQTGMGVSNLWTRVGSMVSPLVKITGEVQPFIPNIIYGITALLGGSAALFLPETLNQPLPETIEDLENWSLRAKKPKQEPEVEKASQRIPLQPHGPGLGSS

Chain of lysophosphatidic acid receptor 1 (LPAR1) (Q92633 whole entry): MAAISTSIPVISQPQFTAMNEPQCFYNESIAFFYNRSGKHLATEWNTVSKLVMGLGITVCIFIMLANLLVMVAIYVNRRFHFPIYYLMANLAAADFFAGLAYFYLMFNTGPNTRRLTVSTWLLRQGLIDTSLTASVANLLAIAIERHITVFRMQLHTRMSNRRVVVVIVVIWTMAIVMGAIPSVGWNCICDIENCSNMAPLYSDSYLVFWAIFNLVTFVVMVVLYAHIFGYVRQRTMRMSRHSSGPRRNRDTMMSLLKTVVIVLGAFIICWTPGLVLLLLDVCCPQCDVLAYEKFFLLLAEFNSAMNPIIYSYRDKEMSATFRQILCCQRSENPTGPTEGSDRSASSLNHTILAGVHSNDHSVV

SMILES: COc1ccc(C(=O)NC2(C(=O)O)Cc3ccccc3C2)cc1OCCc1cccc(C)c1 [Compound I, 2-(4-methoxy-3-(3-methylphenethoxy)benzamido)-2,3-dihydro-1H-indene-2-carboxylic acid]
- arterial stiffness [1]: positive effect
- blood pressure [1]: mostly unchanged
- cardiac function and structure [1]: beneficial effect
- cardiac systolic and diastolic function [1]: improves
- antithrombotic activity (thrombosis): moderate but significant antithrombotic activity; also recorded: demonstrated antithrombotic activity
- inhibition of OAT1 [2]: inhibitor
- inflammation in model of lung injury ([3]; predominant Th2-type response): reduces inflammation
- accumulation of leukocytes and total inflammatory cells in broncho-alveolar lavage ([3]; presensitized mice treated with ovalbumin): significant inhibitory effect
- kidney function (renal failure): improved kidney function
- collagen content (skin fibrosis): reduced
- dermal thickening (skin fibrosis): reversed
- myofibroblast differentiation (skin fibrosis): significantly inhibited
- LPAR1 antagonist activity [4]: potent and selective antagonist
- progression of skin fibrosis (tight skin (Tsk-1) mice): inhibit the progression of skin fibrosis at a similar level than imatinib
- dose proportionality of Cmax and AUC ([5]; 150 to 450 mg, ANOVA): less than dose-proportional
- AUC(0-inf) ([5]; 150 mg single dose): 85.2 µg·h/mL
- AUC(0-t) ([5]; 150 mg single dose): 83.8 µg·h/mL
- Cmax ([5]; 150 mg single dose): 11100 ng/mL
- Tmax ([5]; 150 mg single dose): 3.5 h
- half-life ([5]; 150 mg single dose): 21.8 h
- AUC(0-inf) ([5]; 300 mg single dose): 120 µg·h/mL
- AUC(0-t) ([5]; 300 mg single dose): 118 µg·h/mL
- Cmax ([5]; 300 mg single dose): 14500 ng/mL
- Tmax ([5]; 300 mg single dose): 4 h
- half-life ([5]; 300 mg single dose): 22.4 h
- AUC(0-inf) ([5]; 450 mg single dose): 126 µg·h/mL
- AUC(0-t) ([5]; 450 mg single dose): 125 µg·h/mL
- Cmax ([5]; 450 mg single dose): 15200 ng/mL
- Tmax ([5]; 450 mg single dose): 3 h
- half-life ([5]; 450 mg single dose): 18.3 h
- inhibition of OAT3 [6]: inhibitor
